# Assay results from patent publication US9840532B2, “5′-substituted nucleoside compounds” (Eli Lilly and Company, priority 2015, dated 2017).
# pEC50, pIC50: −log10 of the molar value.
# Experiments:
# [1] = test system: PRMT5-dependent alternative splicing of MDM4 in A375 melanoma cells; test: MDM4 Exon5/6 qPCR Assay in A375 Tumor Cells; type: cell-based; conditions: Homo sapiens, A-375, 72 hr, Mean ± SEM
# Procedure: Culture A375 tumor cells (ATCC), a melanoma cancer cell line, to 70%-90% confluence in T150 flasks with the growth medium (DMEM; HYCLONE™ #SH30022 with 10% FBS; GIBCO® 10082-147 or equivalent). Treat the cells with standard trypsin/EDTA treatment for 3 min and aspirate and wash with PBS to release the adherent cells from the culture flask. Seed the cells into a 96 well plate (Costar 3596) at 5000/well in growth medium (90 μL). Incubate the plate overnight at 37° C. and 5% CO2 and treat the cells with test compound at serial dilutions ([…], final DMSO addition of 0.2% yield) for 72 hr. Measure activity relative to maximum (2.0 μM of Example 2 and minimum (0.2% DMSO) controls.
# On Day 5 after incubation, remove the medium from the culture plates and wash the cells twice with cold PBS (150 μL/well). Prepare Lysis Working Reagent from the TAQMAN® Gene Expression Cells-to-CT Kit (INVITROGEN™ cat. # AM1729) by dilution of DNAse 1 into Lysis Solution at 1/100. Add Lysis Working Reagent (50 μL/well) to the cell plates, mix well, and incubate at room temperature for 5 min Add kit stop solution (5 μL) to each well, mix the wells, and incubate for 2 min at room temperature. Prepare Reverse Transcriptase Master Mix in the following volume ratios; RT buffer: Nuclease-free water: RT Enzyme at 62.5:31.25:6.25. Add RT mix (48 μL/well) to each well of a 96-well NUNC™ plate (THERMO SCIENTIFIC™ #260860). Add RT mix (20 μL) and each cell lysate sample (5 μL) into a 384 PCR plate (Clear Optical Reaction Plate, cat. #4309849, APPLIED BIOSYSTEMS®) quadrant 1 and add a second addition of RT Mix and cell lysate to quadrant 3. For the RT reaction, seal the plates and then place them in a thermal cycler set at 37° C. for 60 min; 95° C. for 5 min; stop at 4° C. For qPCR, prepare MDM4 exon 5 primers (Life Technologies Hs00967240-ml) and exon 6 primers (Life Technologies Hs00967242-ml) separately in the following volume ratios of RT mix: H2O: exon probe at 10:6:1. Add Exon 5 (17 μL) to odd columns of a 384 PCR plate and add exon 6 (17 μL) to the even columns. Add cDNA (3 μL, from the RT plate) by quadrant stamping to each well of the qPCR plate containing the 17 μL exon primer solution. In this manner, perform qPCR for both exons on cDNAs from a single RT reaction on an individual cell lysate. Seal the plates, spin, and place on a real-time PCR instrument (Life Technologies ViiA7 Real-Time PCR). […]
# Retrieve CT data from the real-time PCR reader and perform the following calculations, where “CPD” is the value from compound-treated samples, and “DMSO” is the minimum control sample, using an Excel template: (Exon 6 CT CPD−Exon 6 CT DMSO)−(Exon 5 CT CPD−Exon 5 CT DMSO)=ΔCT 2^(−ΔCT)=Fold Change […]
# PRMT5/MEP50 complex = molecular target: T1, PRMT5/MEP50 complex (Homo sapiens, UniProt O14744); test: PRMT5/MEP50 SPA Assay; type: biochemical; conditions: Mean ± SEM
# T1 construct: FLAG; made in house; host or cells: baculovirus/Sf9 insect cells
# T1 sequence (O14744 whole entry): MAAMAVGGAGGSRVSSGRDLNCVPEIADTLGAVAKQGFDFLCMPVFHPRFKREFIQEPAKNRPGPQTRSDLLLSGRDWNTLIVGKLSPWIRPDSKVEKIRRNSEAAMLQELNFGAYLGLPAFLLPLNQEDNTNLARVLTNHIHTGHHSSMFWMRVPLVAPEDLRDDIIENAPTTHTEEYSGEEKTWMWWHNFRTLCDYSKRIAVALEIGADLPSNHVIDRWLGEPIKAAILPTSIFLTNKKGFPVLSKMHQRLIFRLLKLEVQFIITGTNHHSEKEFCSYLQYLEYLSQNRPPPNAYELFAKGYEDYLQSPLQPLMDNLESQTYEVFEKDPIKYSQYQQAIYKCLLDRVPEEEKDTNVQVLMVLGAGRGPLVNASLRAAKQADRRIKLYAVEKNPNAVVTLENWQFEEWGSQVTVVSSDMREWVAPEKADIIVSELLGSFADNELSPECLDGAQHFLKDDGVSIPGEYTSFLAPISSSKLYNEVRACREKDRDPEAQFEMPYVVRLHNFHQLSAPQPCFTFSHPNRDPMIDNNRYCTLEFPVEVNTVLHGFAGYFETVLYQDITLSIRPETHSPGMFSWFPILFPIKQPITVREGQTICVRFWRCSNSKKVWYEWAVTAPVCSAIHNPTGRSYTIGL
# T1 sequence (Q9BQA1 whole entry partner): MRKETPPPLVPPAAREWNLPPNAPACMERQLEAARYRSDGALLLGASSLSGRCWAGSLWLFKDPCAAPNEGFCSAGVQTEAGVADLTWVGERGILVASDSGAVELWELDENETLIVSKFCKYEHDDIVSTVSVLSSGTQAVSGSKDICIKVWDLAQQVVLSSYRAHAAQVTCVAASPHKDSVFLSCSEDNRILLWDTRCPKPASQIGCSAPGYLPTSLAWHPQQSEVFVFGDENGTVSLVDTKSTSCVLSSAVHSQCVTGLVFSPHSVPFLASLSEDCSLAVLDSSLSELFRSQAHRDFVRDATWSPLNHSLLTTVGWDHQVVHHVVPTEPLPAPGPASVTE
# Description: The purpose of this assay is to measure the ability of a test compound to inhibit the enzyme activity of PRMT5 in vitro by inhibiting the catalytic activity of PRMT5/MEP50 complex, indicated by the transfer of radiolabeled methyl-^3H to a substrate peptide derived from the N-terminal sequence of the human histone H4.
# Express the PRMT5/MEP50 enzyme complex using a baculovirus/Sf9 system and purify using anti-FLAG affinity chromatography, (essentially as described in preparations by Stephen Antonysamy, Zahid Bonday, Robert M. Campbell, Brandon Doyle, Zhanna Druzina, Tarun Gheyi, Bomie Han, Louis N. Jungheim, Yuewei Qian, Charles Rauch, Marijane Russell, J. Michael Sauder, Stephen R. Wasserman, Kenneth Weichert, Francis S. Willard, Aiping Zhang, and Spencer Emtage; Crystal structure of the human PRMT5:MEP50 complex, Proceedings of the National Academy of Sciences, 2012, Volume 109, pages 17960-17965.) Dilute purified enzyme to a working stock of 6.67 nM in assay buffer (50 mM TRIZMA® preset pH ˜8.5, 1 mM DTT, 0.005% TWEEN® 80 0.01% HSA).
# Add enzyme (15 μL/well) to a 384-well assay plate (CORNING® cat. #3706). Add test compounds from a 10 mM DMSO stock solution to the plate as serial dilutions in assay buffer to achieve a final test concentrations ranging from 50.0 μM to 25 nM. Create a reaction mix containing 1 μM Histone H4 biotinylated peptide substrate, H-[…]-biotin (SEQ ID NO: 1), prepared by FastMoc chemistry with an ABI 431 peptide, and 4 μM ^3H-SAM; 15 Ci/mmol, 0.366 mCi/mL, 37 μM, PERKIN-ELMER® cat. # NET155000MC) in assay buffer. To each plate well, add 5 μL of the peptide/^3H-SAM reaction mix to yield final assay conditions of 5 nM enzyme, 1 ^3H-SAM, 250 nM peptide and 50 μM maximum test compound concentration with 0.5% DMSO, at a final volume of 20 μL. Incubate the assay for 2 hr at room temperature. Stop the reaction with the addition of guanidine HCl (5 M, 20 μL, Sigma cat. # G3272).
# Suspend strepavidin YSI SPA scintillation beads (PERKIN-ELMER®, #RPNQ0012) at 1 mg/mL in pH ˜8.5 Tris buffer containing 5 M guanidine HCl. To each well, add 20 μL of this bead suspension, agitate the resulting mixtures, and incubate for 1 hr at room temperature prior to measuring their radioactivity, using a microplate liquid scintillation counter as an indication of the formation of methylated peptide product.
# Generate raw data from the radioactivity measurement as counts per min (CPM). Employ an uninhibited control (DMSO) and maximum inhibited control (250 μM dehydrosinefungin, (isolated essentially as described in Berry, D. R. & Abbott, B. J. Incorporation of carbon-14-labeled compounds into sinefungin (A9145), a nucleoside antifungal antibiotic. J. Antibiot. 1978 (31) 185-191 and references cited therein)). […]
# Molt 4 cells = test: Xenograft tumor model, acute lymphoblastic leukemia (Molt 4); type: in vivo, mouse; conditions: 60 mg/kg BID for 30 days, oral gavage
# Procedure: The purpose of this assay is to measure in a mouse model of cancer the reduction in tumor volume in response to test compound administration.
# Grow A375 (melanoma) cells in DMEM/High glucose (HYCLONE™ cat. # SH30022) with 10% HI FBS (GIBCO® cat. #10082-147). Grow Will-2 (DLBCL) cells in RPMI 1640 with L-glutamine and 20% heat inactivated FBS. Grow Namalwa (Burkitt's lymphoma) cells (ATCC) in RPMI 1640 media supplemented with L-glutamine, 25 mM HEPES (GIBCO® 22400-089), 1 mM sodium pyruvate and 7.5% FBS. Grow Molt 4 cells in RPMI 1640 with L-glutamine, 25 mM HEPES [GIBCO 22400-089], 1 mM sodium pyruvate, and 10% FBS. Harvest cells and inject subcutaneously onto the rear flank of nude mice (A375: 5×10^6 cells/animal, mixed 1:1 with MATRIGEL®; Will-2; 1×10^7 cells/animal; Namalwa: 2×10^6 cells/animal; Molt 4: : 5×10^6 cells/animal, mixed 1:1 with MATRIGEL®). When tumors are established (approximately 200 mm^3, 7-21 days after implant), randomize animals, and group them into control and test groups. Formulate the test compound in 1% HEC/0.25% TWEEN®-80/0.05% Antifoam. Administer test compound and vehicles by oral gavage. Determine tumor response by tumor volume measurement (caliper) performed twice a week during the course of treatment and report as the percent inhibition of tumor volume versus the vehicle control group.
# GDM-1 cells = test: Combination with BCL2 inhibitor ABT-199 in AML cell lines, 4-day cell proliferation assay; type: cell-based; conditions: GDM-1, treatment duration 4 Days; single agent or combination; read-out: Absolute IC50 (cell proliferation)
# Procedure: (§1) On day 1, plate GDM-1 [ATCC®, maintained throughout in GDM-1 assay medium: RPMI-1640 medium/20% heat-inactivated FBS (GIBCO®)] and EOL-1 cells [ATCC®, maintained throughout in EOL-1 assay medium: RPMI-1640 medium/10% heat-inactivated FBS (GIBCO®)] at 4000 and 10000 cells/well (100 μL/well) respectively, in a 96-well assay plate (BD FALCON® 35-3219). Incubate the plates in a 37° C. incubator (5% CO2) for 18-24 hr. On day 2, prepare 2.0% DMSO with assay medium (as indicated above or RPMI-1640/20% heat-inactivated FBS and RPMI-1640/10% FBS for GDM-1 and EOL-1, respectively) and add 100 μL to columns 3-12 in a preparation plate. Prepare test compounds ABT-199 at 10 μM in 2% DMSO and PRMT5 inhibitor Example 1 at 25 μM in 2% DMSO and dispense into wells A2 and B2, respectively, followed by serial dilution (1:3, 10 points) to wells A11 and B11, respectively. For combinational treatment, serially dilute test compound examples at 1:2 in assay medium (as indicated above or RPMI-1640/20% heat-inactivated FBS and RPMI-1640/10% FBS for GDM-1 and EOL-1, respectively) in wells C2-C11 (0.1 μM) to H2-H11, then serially dilute test compound ABT-199 1:3 from C2-H2 (1.0 μM) to C11-H11. […] Incubate plates for 10-15 min at room temperature before reading. Measure luminescence using the PERKIN-ELMER® ENVISION® Multi-Label Reader. […]
# EOL-1 cells = test: Combination with BCL2 inhibitor ABT-199 in AML cell lines, 7-day cell proliferation assay; type: cell-based; conditions: EOL-1, treatment duration 7 Days; single agent or combination; read-out: Absolute IC50 (cell proliferation)
# Procedure: as §1
pEC50 [1],pIC50 (PRMT5/MEP50 complex),Compound,percent inhibition of tumor volume versus vehicle (Molt 4 cells),pIC50 (GDM-1 cells),pIC50 (EOL-1 cells)
5.98,8.28,"Nc1ncnc2c1ccn2[C@@H]1O[C@H]([C@H](O)c2ccc(Cl)c(OC3CC3)c2)[C@@H](O)[C@H]1O [Example 4, (2R,3R,4S,5R)-2-(4-aminopyrrolo[2,3-d]pyrimidin-7-yl)-5-[(R)-[4-chloro-3-(cyclopropoxy)phenyl]-hydroxy-methyl]tetrahydrofuran-3,4-diol]",−75%,–,–
–,–,ABT-199 [reference compound],–,8.15,7.52
